Measurements as given in patent publication US12295936B2, “Immunomodulating urea azalides” (Zoetis Services LLC, priority 2020, dated 2025).

Tests used:
TNF-α = experiment: LPS-stimulated whole bovine blood assay, MSD cytokine detection; type: cell-based; settings: Bos taurus, LPS-stimulated bovine whole blood; read-out: TNF-α (IC50 μM)
IL-1β = experiment: as above; type: cell-based; settings: overstimulation of IL-1β, LPS-stimulated bovine whole blood
[1] = test system: BRD pathogens, M. haemolytica and P. multocida; experiment: MIC screening panel of BRD pathogens (antibacterial / non-antibacterial); settings: read-out: antibacterial / non-antibacterial (MIC for the BRD pathogens)
IL-6 = experiment: LPS-stimulated whole bovine blood assay, MSD cytokine detection; type: cell-based; settings: Bos taurus, LPS-stimulated bovine whole blood; read-out: IL-6 (IC50 μM)
From the text: In order to correlate RNA sequencing data to cytokine changes the whole blood assay was utilized. […] The enhancement result represents an overall stimulation of cytokine levels due to cellular stress or potential toxicity with increasing concentrations of the compound, representing a typical bell shape response curve for immunomodulatory activity.

Compound | IC50 (TNF-α) [µM] | IC50 (IL-6) [µM] | IL-1β OS of LPS (IL-1β) [µM] | MIC [1] [µg/mL]
CC[C@H]1OC(=O)[C@H](C)[C@@H](O[C@H]2C[C@@](C)(OC)[C@](O)(CNCC(C)C)[C@H](C)O2)[C@H](C)[C@@H](O[C@@H]2O[C@H](C)C[C@H](N(C)C(=O)N(C)c3ccccc3)[C@H]2O)[C@](C)(O)C[C@@H](C)CN[C@H](C)[C@@H](O)[C@]1(C)O [Example H-24, 1-((2S,3R,4S,6R)-2-(((2R,3S,4R,5R,8R,10R,11R,12S,13S,14R)-2-ethyl-3,4,10-trihydroxy-13-(((2R,4R,5S,6S)-5-hydroxy-5-((isobutylamino)methyl)-4-methoxy-4,6-dimethyltetrahydro-2H-pyran-2-yl)oxy)-3,5,8,10,12,14-hexamethyl-15-oxo-1-oxa-6-azacyclopentadecan-11-yl)oxy)-3-hydroxy-6-methyltetrahydro-2H-pyran-4-yl)-1,3-dimethyl-3-phenylurea] | 23 | 30 | 16 | > 64
CC[C@H]1OC(=O)[C@H](C)[C@@H](O[C@H]2C[C@@](C)(OC)[C@](O)(CNCCCn3ccnc3)[C@H](C)O2)[C@H](C)[C@@H](O[C@@H]2O[C@H](C)C[C@H](N(C)C(=O)N(C)c3ccccc3)[C@H]2O)[C@](C)(O)C[C@@H](C)CN[C@H](C)[C@@H](O)[C@]1(C)O [Example H-25, 1-((2S,3R,4S,6R)-2-(((2R,3S,4R,5R,8R,10R,11R,12S,13S,14R)-13-(((2R,4R,5S,6S)-5-(((3-(1H-imidazol-1-yl)propyl)amino)methyl)-5-hydroxy-4-methoxy-4,6-dimethyltetrahydro-2H-pyran-2-yl)oxy)-2-ethyl-3,4,10-trihydroxy-3,5,8,10,12,14-hexamethyl-15-oxo-1-oxa-6-azacyclopentadecan-11-yl)oxy)-3-hydroxy-6-methyltetrahydro-2H-pyran-4-yl)-1,3-dimethyl-3-phenylurea] | 19 | 22 | 16 | > 64
CC[C@H]1OC(=O)[C@H](C)[C@@H](O[C@H]2C[C@@](C)(OC)[C@](O)(CNC3CC3)[C@H](C)O2)[C@H](C)[C@@H](O[C@@H]2O[C@H](C)C[C@H](N(C)C(=O)N(C)c3ccccc3)[C@H]2O)[C@](C)(O)C[C@@H](C)CN[C@H](C)[C@@H](O)[C@]1(C)O [Example H-27, 1-((2S,3R,4S,6R)-2-(((2R,3S,4R,5R,8R,10R,11R,12S,13S,14R)-13-(((2R,4R,5S,6S)-5-((cyclopropylamino)methyl)-5-hydroxy-4-methoxy-4,6-dimethyltetrahydro-2H-pyran-2-yl)oxy)-2-ethyl-3,4,10-trihydroxy-3,5,8,10,12,14-hexamethyl-15-oxo-1-oxa-6-azacyclopentadecan-11-yl)oxy)-3-hydroxy-6-methyltetrahydro-2H-pyran-4-yl)-1,3-dimethyl-3-phenylurea] | 8 | 17 | 16 | > 64
CCCCNC[C@]1(O)[C@H](C)O[C@@H](O[C@H]2[C@H](C)[C@@H](O[C@@H]3O[C@H](C)C[C@H](N(C)C(=O)N(C)c4ccccc4)[C@H]3O)[C@](C)(O)C[C@@H](C)CN[C@H](C)[C@@H](O)[C@](C)(O)[C@@H](CC)OC(=O)[C@@H]2C)C[C@@]1(C)OC [Example H-28, 1-((2S,3R,4S,6R)-2-(((2R,3S,4R,5R,8R,10R,11R,12S,13S,14R)-13-(((2R,4R,5S,6S)-5-((butylamino)methyl)-5-hydroxy-4-methoxy-4,6-dimethyltetrahydro-2H-pyran-2-yl)oxy)-2-ethyl-3,4,10-trihydroxy-3,5,8,10,12,14-hexamethyl-15-oxo-1-oxa-6-azacyclopentadecan-11-yl)oxy)-3-hydroxy-6-methyltetrahydro-2H-pyran-4-yl)-1,3-dimethyl-3-phenylurea] | 13 | 8 | 17 | > 64
CC[C@H]1OC(=O)[C@H](C)[C@@H](O[C@H]2C[C@@](C)(OC)[C@](O)(CNCCC(C)C)[C@H](C)O2)[C@H](C)[C@@H](O[C@@H]2O[C@H](C)C[C@H](N(C)C(=O)N(C)c3ccccc3)[C@H]2O)[C@](C)(O)C[C@@H](C)CN[C@H](C)[C@@H](O)[C@]1(C)O [Example H-29, 1-((2S,3R,4S,6R)-2-(((2R,3S,4R,5R,8R,10R,11R,12S,13S,14R)-2-ethyl-3,4,10-trihydroxy-13-(((2R,4R,5S,6S)-5-hydroxy-5-((isopentylamino)methyl)-4-methoxy-4,6-dimethyltetrahydro-2H-pyran-2-yl)oxy)-3,5,8,10,12,14-hexamethyl-15-oxo-1-oxa-6-azacyclopentadecan-11-yl)oxy)-3-hydroxy-6-methyltetrahydro-2H-pyran-4-yl)-1,3-dimethyl-3-phenylurea] | 50 | 50 | 3 | > 64

The next lines start with results.

IC50 (TNF-α) [µM] | IC50 (IL-6) [µM] | Compound | IL-1β OS of LPS (IL-1β) [µM] | MIC [1] [µg/mL]
41 | 41 | CC[C@H]1OC(=O)[C@H](C)[C@@H](O[C@H]2C[C@@](C)(OC)[C@](O)(CNCC3CCN(C(C)=O)CC3)[C@H](C)O2)[C@H](C)[C@@H](O[C@@H]2O[C@H](C)C[C@H](N(C)C(=O)N(C)c3ccccc3)[C@H]2O)[C@](C)(O)C[C@@H](C)CN[C@H](C)[C@@H](O)[C@]1(C)O [Example H-31, 1-((2S,3R,4S,6R)-2-(((2R,3S,4R,5R,8R,10R,11R,12S,13S,14R)-13-(((2R,4R,5S,6S)-5-((((1-acetylpiperidin-4-yl)methyl)amino)methyl)-5-hydroxy-4-methoxy-4,6-dimethyltetrahydro-2H-pyran-2-yl)oxy)-2-ethyl-3,4,10-trihydroxy-3,5,8,10,12,14-hexamethyl-15-oxo-1-oxa-6-azacyclopentadecan-11-yl)oxy)-3-hydroxy-6-methyltetrahydro-2H-pyran-4-yl)-1,3-dimethyl-3-phenylurea] | 81 | > 64
11 | 8 | CC[C@H]1OC(=O)[C@H](C)[C@@H](O[C@H]2C[C@@](C)(OC)[C@](O)(CNc3ccccc3)[C@H](C)O2)[C@H](C)[C@@H](O[C@@H]2O[C@H](C)C[C@H](N(C)C(=O)N(C)c3ccccc3)[C@H]2O)[C@](C)(O)C[C@@H](C)CN[C@H](C)[C@@H](O)[C@]1(C)O [Example H-32, 1-((2S,3R,4S,6R)-2-(((2R,3S,4R,5R,8R,10R,11R,12S,13S,14R)-2-ethyl-3,4,10-trihydroxy-13-(((2R,4R,5S,6S)-5-hydroxy-4-methoxy-4,6-dimethyl-5-((phenylamino)methyl)tetrahydro-2H-pyran-2-yl)oxy)-3,5,8,10,12,14-hexamethyl-15-oxo-1-oxa-6-azacyclopentadecan-11-yl)oxy)-3-hydroxy-6-methyltetrahydro-2H-pyran-4-yl)-1,3-dimethyl-3-phenylurea] | 44 | > 64
37 | 57 | CC[C@H]1OC(=O)[C@H](C)[C@@H](O[C@H]2C[C@@](C)(OC)[C@](O)(CNCCC3CCOCC3)[C@H](C)O2)[C@H](C)[C@@H](O[C@@H]2O[C@H](C)C[C@H](N(C)C(=O)N(C)c3ccccc3)[C@H]2O)[C@](C)(O)C[C@@H](C)CN[C@H](C)[C@@H](O)[C@]1(C)O [Example H-33, 1-((2S,3R,4S,6R)-2-(((2R,3S,4R,5R,8R,10R,11R,12S,13S,14R)-2-ethyl-3,4,10-trihydroxy-13-(((2R,4R,5S,6S)-5-hydroxy-4-methoxy-4,6-dimethyl-5-(((2-(tetrahydro-2H-pyran-4-yl)ethyl)amino)methyl)tetrahydro-2H-pyran-2-yl)oxy)-3,5,8,10,12,14-hexamethyl-15-oxo-1-oxa-6-azacyclopentadecan-11-yl)oxy)-3-hydroxy-6-methyltetrahydro-2H-pyran-4-yl)-1,3-dimethyl-3-phenylurea] | 6 | > 64
8 | 12 | CC[C@H]1OC(=O)[C@H](C)[C@@H](O[C@H]2C[C@@](C)(OC)[C@](O)(CN(C)C3CCC3)[C@H](C)O2)[C@H](C)[C@@H](O[C@@H]2O[C@H](C)C[C@H](N(C)C(=O)N(C)c3ccccc3)[C@H]2O)[C@](C)(O)C[C@@H](C)CN[C@H](C)[C@@H](O)[C@]1(C)O [Example H-37, 1-((2S,3R,4S,6R)-2-(((2R,3S,4R,5R,8R,10R,11R,12S,13S,14R)-13-(((2R,4R,5S,6S)-5-((cyclobutyl(methyl)amino)methyl)-5-hydroxy-4-methoxy-4,6-dimethyltetrahydro-2H-pyran-2-yl)oxy)-2-ethyl-3,4,10-trihydroxy-3,5,8,10,12,14-hexamethyl-15-oxo-1-oxa-6-azacyclopentadecan-11-yl)oxy)-3-hydroxy-6-methyltetrahydro-2H-pyran-4-yl)-1,3-dimethyl-3-phenylurea] | 40 | > 64
34 | 29 | CC[C@H]1OC(=O)[C@H](C)[C@@H](O[C@H]2C[C@@](C)(OC)[C@](O)(CNCCS(=O)(=O)c3ccccc3)[C@H](C)O2)[C@H](C)[C@@H](O[C@@H]2O[C@H](C)C[C@H](N(C)C(=O)N(C)c3ccccc3)[C@H]2O)[C@](C)(O)C[C@@H](C)CN[C@H](C)[C@@H](O)[C@]1(C)O [Example H-43, 1-((2S,3R,4S,6R)-2-(((2R,3S,4R,5R,8R,10R,11R,12S,13S,14R)-2-ethyl-3,4,10-trihydroxy-13-(((2R,4R,5S,6S)-5-hydroxy-4-methoxy-4,6-dimethyl-5-(((2-(phenylsulfonyl)ethyl)amino)methyl)tetrahydro-2H-pyran-2-yl)oxy)-3,5,8,10,12,14-hexamethyl-15-oxo-1-oxa-6-azacyclopentadecan-11-yl)oxy)-3-hydroxy-6-methyltetrahydro-2H-pyran-4-yl)-1,3-dimethyl-3-phenylurea] | 16 | > 64
